The values that follow are results of earlier work, collected in publication PMC4382562 (Current Chemical Genomics and Translational Medicine, 2015).

The IC50 is the concentration that inhibits the measured activity by half.

The subject of the data set is iCell Neurons. The note with it: read-out: Neurite outgrowth IC50 (high content image-based analysis), previously reported.

As for `CCCCCC[C@H]1C(=O)O[C@H](C)[C@H](NC(=O)c2cccc(NC=O)c2O)C(=O)O[C@@H](C)[C@@H]1OC(=O)CC(C)C` [Antimycin A], the IC50 is approximately 13 µM.

On to `CN[C@@H]1C[C@H]2O[C@@](C)([C@@H]1OC)n1c3ccccc3c3c4c(c5c6ccccc6n2c5c31)C(=O)NC4` [Staurosporine], for which the IC50 was approximately 0.9 µM.
